Data from article PMC4205289, “Triptolide inhibits human immunodeficiency virus type 1 replication by promoting proteasomal degradation of Tat protein” (Retrovirology, 2014).
Entries after “also recorded” stand apart in the source; their conditions may differ. Where two headings read alike, the source gives them in different places.

Legend:
[1] = tested on: HIV-1 NL4-3; test: PBMC antiviral assay, p24 ELISA; type: cell-based; conditions: for EC50: Human immunodeficiency virus 1, NL43, PBMC, 144 h, p24, day 6 post-infection; for selectivity ratio at 6 days: human, read-out: SI (selective index, CC50/EC50)
Description: In the antiviral assay using PBMCs, determination of the anti-HIV-1 activity of a particular compound was based on the inhibition of HIV-1 capsid protein (p24) production. After isolation, PBMCs were stimulated with phytohemagglutinin (2 μg/ml, Sigma-Aldrich) and interleukin-2 (20 U/mL, Sigma-Aldrich) in RPMI 1640 complete medium for three days and were then maintained with interleukin-2 during viral infection. PBMCs were infected with HIV-1 NL4-3 (MOI = 0.01). After viral adsorption for 2 h, the cells were washed thoroughly with culture medium to remove unabsorbed viral particles. The infected cells (2 × 10^5 cells/well) were cultured in 96-well plates in the presence of or absence of the test compound. At two, four, six, and eight days post-infection, half of the culture supernatant was collected and replaced with fresh medium containing the test compounds. The level of viral replication was determined with an HIV-1 p24 antigen capture enzyme-linked immunosorbent assay (ELISA).

[2] = tested on: HIV-1 LAI; test: PBMC antiviral assay, p24 ELISA; type: cell-based; conditions: for EC50: Human immunodeficiency virus 1, PBMC, 144 h, p24, day 6 post-infection; for selectivity ratio at 6 days: human, read-out: SI (selective index, CC50/EC50)
[3] = Cytotoxicity, CellTiter-Glo; type: cell-based; conditions: human; for CC50 at 6 days: PBMCs, mock-infected cell viability
Description: (§1) The cytotoxicity of the tested compounds was evaluated in parallel with their antiviral assays using the CellTiter-Glo reagent (Promega) according to the manufacturer’s protocol. The 50% cytotoxic concentrations (CC50s) is the compound concentration that reduced cell viability by 50%.

[4] = tested on: PBMCs; test: Cytotoxicity, CellTiter-Glo; type: cell-based
Description: as §1

[5] = tested on: TZM-bl cells; test: Cytotoxicity, CellTiter-Glo; type: cell-based; conditions: TZM-bl, all tested concentrations, in parallel with antiviral assay
Description: as §1

[6] = tested on: TNF-α-induced HIV-1 LTR activation; test: HIV-1 LTR-luciferase reporter assay, TNF-α-induced, Jurkat cells; type: cell-based; conditions: TNF-α 10 ng/mL, tested concentrations up to 5 nM
Description: (§2) Jurkat cells were seeded in 24-well plates at a density of 2 × 10^5 cells per well. For TNF-α induction, cells were co-transfected with pLTR-Luc and pRL-TK in the presence or absence of the test compounds. Then, the cells were treated with 10 ng/mL TNF-α 36 h post-transfection. After induction for an additional 12 h, luciferase activity was analyzed. For Tat-induced LTR activation, Jurkat cells were co-transfected with pLTR-Luc (or pLTR-Luc-ΔkB), pEF1-Tat and pRL-TK, and cultured in the presence of various concentrations of test compounds for an additional 48 h before the determination of luciferase activity. Luciferase levels were expressed relative to levels in cells without induction.

[7] = tested on: basal HIV-1 LTR transcription; test: Basal LTR transcription activity in TZM-bl and Jurkat cells; type: cell-based; conditions: tested concentrations (data not shown)
Description: The effect of the test compounds on HIV-1 LTR promoter activity was evaluated using the luciferase reporter systems in both TZM-bl and Jurkat cells. TZM-bl cells seeded in 96-well plates (2 × 10^4 cells/well) were treated with either 10 ng/mL TNF-α (Sigma-Aldrich) or co-transfected with pEF1-Tat and pRL-TK (for transfection efficiency normalization) using Lipofectamine 2000 (Invitrogen). The cells were then cultured in the presence of various concentrations of the test compounds. After 24 h (TNF-α stimulation) or 48 h (Tat transfection) of incubation, luciferase activity was determined from cell lysates using the StedyGlo reagent (for TNF-α treated cells) or a dual luciferase assay system (Promega, for transfected cells) as recommended by the manufacturer.
as §2, with “Luciferase levels were expressed relative to levels in cells without induction.” left out

[8] = tested on: Tat protein; test: Western blot of Tat steady-state level in transfected HeLa cells; type: cell-based, HIV-1 NL4-3
Description: (§3) (A) HeLa cells were transfected with pEF1-FLAG-Tat in the presence of increasing concentrations of triptolide. Cells were harvested 48 h post-transfection, and protein expression levels were determined by Western blotting. (B) HeLa cells were transfected either with pEF1-GFP (left) or pEF1-Tat-GFP (right) in the presence of increasing concentrations of triptolide. Cells were harvested 48 h post-transfection, and protein expression levels were determined by Western blotting.
(§4) Cells were washed with phosphate buffered saline (PBS) and lysed with radio immunoprecipitation assay lysis buffer supplemented with complete mini protease inhibitor cocktail (Roche) at 4°C for 1 h. Proteins from cell lysates were separated by SDS-PAGE and transferred to polyvinylidene difluoride membranes. After overnight incubation with primary antibodies at 4°C, each blot was probed with horseradish peroxidase-conjugated secondary antibody. Immunoreactive signals were detected with an enhanced chemiluminescence substrate (Thermo Scientific) using an AlphaEaseH FC Imaging System (Alpha Innotech Corporation).

[9] = tested on: T1, Tat protein; test: as above; type: cell-based, HIV-1 NL4-3
T1 construct: expressed in transfected cells; host or cells: HeLa
Description: as §3, §4

CC(C)[C@]12O[C@H]1[C@@H]1O[C@]13[C@]1(O[C@H]1C[C@H]1C4=C(CC[C@@]13C)C(=O)OC4)[C@@H]2O [triptolide]
EC50 ([1]; HIV-1 NL4-3, PBMC donor A): 1.1 nM
EC50 ([1]; HIV-1 NL4-3, PBMC donor B): 0.9 nM
EC50 ([1]; HIV-1 NL4-3, PBMC donor C): 1.3 nM
selectivity ratio at 6 days ([1]; HIV-1 NL4-3, PBMC donor A): 11.5
selectivity ratio at 6 days ([1]; HIV-1 NL4-3, PBMC donor B): 17
selectivity ratio at 6 days ([1]; HIV-1 NL4-3, PBMC donor C): 8.6
EC50 ([2]; PBMC donor A): 1.5 nM
EC50 ([2]; PBMC donor B): 1.2 nM
EC50 ([2]; PBMC donor C): 1.5 nM
selectivity ratio at 6 days ([2]; PBMC donor A): 8.4
selectivity ratio at 6 days ([2]; PBMC donor B): 12.8
selectivity ratio at 6 days ([2]; PBMC donor C): 7.5
CC50 ([3]; Jurkat cells, mock-infected Jurkat cell viability): 13.9 nM
CC50 at 6 days ([3]; PBMC donor A): 12.6 nM
CC50 at 6 days ([3]; PBMC donor B): 15.3 nM
CC50 at 6 days ([3]; PBMC donor C): 11.2 nM
CC50 ([3]; TZM-bl cells, mock-infected TZM-bl cell viability): 25.4 nM
maximum non-toxic concentration [4]: 4 nM
toxicity in cell viability assay [5]: no obvious toxicity
effect on TNF-α induced gene expression [6]: no effect on TNF-α induced gene expression; also recorded: not active
effect on basal LTR transcription activity [7]: did not affect basal LTR transcription activity
effect on steady-state level of Tat mutants with deletion of acidic, cysteine or core region ([8]; FLAG-tagged deletion mutants, 48 h): completely aborted the activity of triptolide
steady level of FLAG-Tat-NES ([8]; NES from HIV-1 Rev fused to C-terminus of Tat): remained unchanged
FLAG-Tat-SFV expression ([8]; basic domain replaced with NLS from SFV capsid): dose-dependently reduced
action on nuclear versus cytoplasmic Tat Δ49–57 ([9]; 5 nM triptolide, nuclear/cytoplasmic fractionation, 48 h): only acted on Tat protein accumulated in nucleus
effect on Tat mutant with deletion of basic region ([9]; FLAG-Tat Δ49–57, 48 h): partially attenuated
steady-state level of Tat protein ([9]; pEF1-FLAG-Tat, 48 h post-transfection, Western blotting): reduced by triptolide in a dose-dependent manner
